Experimental findings from ChEMBL document CHEMBL1255199, “Endochin optimization: structure-activity and structure-property relationship studies of 3-substituted 2-methyl-4(1H)-quinolones with antimalarial activity” (J Med Chem, 2010) are described below.

Values after ≈ are worked out from the molar mass of the structure shown.

As usually defined, the EC50 is the concentration needed to bring the measured effect to its halfway point. Low readings indicate higher potency in that assay, high ones lower potency in that assay. What is called solubility is the dissolved amount per volume that the medium holds. For orientation: logD means the decadic logarithm of the distribution of all forms, ionised or not, between an organic phase and buffer at a given pH. A lower logD goes with a more hydrophilic compound. As usually defined, the half-life is the time needed for the level to fall by half in the phase considered.

Series [1] can be described thus: Passive transcellular permeability of the compound at pH 4 by PAMPA. The class given is ADME. The conditions noted are these: for Papp: read-out: permeability.
A further series can be described thus: in vitro. To be noted: mouse, J774 cells.
Series [2] concerns Plasmodium falciparum. As to the kind of experiment: Antimalarial activity against chloroquine, mefloquine, pyrimethamine and atovaquone-resistant Plasmodium falciparum TM90-C2B infected in human A+ erythrocytes after 72 hrs by SYBR Green I assay. In kind it is functional, organism-based.
Another series can be described thus: physchem. To be noted: aqueous, pH 7.4.
A further series relates to J774. As to the kind of experiment: Cytotoxicity against mouse J774 cells. In kind it is cell-based.
Series [3] concerns Plasmodium falciparum. As to the kind of experiment: Antimalarial activity against chloroquine and pyrimethamine-resistant Plasmodium falciparum W2 infected in human A+ erythrocytes after 72 hrs by SYBR Green I assay. The class given is functional, organism-based. To be noted: W2, 72 h.
Series [4] is described as follows: Passive transcellular permeability of the compound at pH 7.4 by PAMPA. In kind it is ADME. To be noted: read-out: permeability. A general note: PAMPA measures passive passage across an artificial lipid membrane.
Series [5] is described as follows: Lipophilicity, log D of the compound at pH 7.4. The conditions noted are these: buffer.
Series [6] can be described thus: Half life in mouse liver microsomes. The class given is ADME, Microsome.
The nature of series [7]: Half life in human liver microsomes. In kind it is ADME, Microsome.

Description for in vitro: Cytotoxicity index, ratio of EC50 for mice (Mus musculus) J774 cells to EC50 for chloroquine, mefloquine, pyrimethamine and atovaquone-resistant Plasmodium falciparum TM90-C2B
Description for physchem: Aqueous solubility of the compound at pH 7.4 by HPLC analysis

For `Cc1[nH]c2cc(Cl)cc(Cl)c2c(=O)c1-c1ccccc1`, the results for the Papp in series [1] and in series [4] were 460 ×10⁻⁶ cm/s and 320 ×10⁻⁶ cm/s, respectively. Besides, in the series “in vitro”, the selectivity ratio was more than 9.5. For the same compound, the concentration giving a half-maximal response (EC50) was 3440 nM in the series on Plasmodium falciparum [2], more than 32900 nM in the series on J774 and 2150 nM in the series on Plasmodium falciparum [3]. The compound also had a solubility in “physchem” of 5 µM (≈ 1.52 µg/mL). The compound further displayed a logD in series [5] of 2.72.
`CCc1c(C)[nH]c2cc(OC)c(F)cc2c1=O`: in [1], the permeability was 22.9 ×10⁻⁶ cm/s. The selectivity ratio in “in vitro” was determined as 58.3. For the same compound, the EC50 in the series with Plasmodium falciparum [2] came to 161 nM; in the series on J774 it was 9400 nM; in the series on Plasmodium falciparum [3], 368 nM. The solubility in the series “physchem” was less than 2 µM. For the same compound, in series [4], the Papp was 19.1 ×10⁻⁶ cm/s. This compound registered a logD in series [5] of 1.2.
In the case of `CCc1c(C)[nH]c2cc(OC)c(Cl)cc2c1=O`, the half-life in series [6] was found to be 28.4 min; in series [7] it was 33.8 min. For the same compound, the Papp is 96.4 ×10⁻⁶ cm/s in series [1] and 57.3 ×10⁻⁶ cm/s in series [4]. Also, the selectivity ratio in the series “in vitro” turned out to be 689. The EC50 in the series with Plasmodium falciparum [2] is 27.6 nM; in the series on J774, 19000 nM; in the series with Plasmodium falciparum [3], 48.2 nM. Further, the concentration in solution in “physchem” (solubility) was 10 µM (≈ 2.52 µg/mL). In [5], the logD is 2.43.
Turning to `CCc1c(C)[nH]c2cc(OC)c(Br)cc2c1=O`, the figures for the Papp in series [1] and in series [4] were 81.9 ×10⁻⁶ cm/s and 75.1 ×10⁻⁶ cm/s, respectively. The selectivity ratio in “in vitro” is more than 933. The figures for the EC50 in the series with Plasmodium falciparum [2], with J774 and with Plasmodium falciparum [3] were 36.3 nM, more than 33900 nM and 179 nM, respectively. This compound had a solubility in “physchem” of 2 µM (≈ 0.592 µg/mL). Also, in series [5], the logD is 1.7.
For the compound `COc1cc2[nH]c(C)c(C)c(=O)c2cc1Cl`, the Papp was found to be 37 ×10⁻⁶ cm/s in series [1] and 59.2 ×10⁻⁶ cm/s in series [4]. For the same compound, in the series “in vitro”, the selectivity ratio was 449. The figures for the concentration giving a half-maximal response (EC50) with Plasmodium falciparum [2], with J774 and with Plasmodium falciparum [3] were 27.3 nM, 12200 nM and 56.6 nM, respectively. Further, the concentration in solution in the series “physchem” (solubility) came to 5 µM (≈ 1.19 µg/mL). The compound also came in with a logD in series [5] of 1.86.
For the compound `COc1cc2[nH]c(C)c(C(C)C)c(=O)c2cc1Cl`, the figures for the Papp in [1] and in [4] were 281 ×10⁻⁶ cm/s and 187 ×10⁻⁶ cm/s, respectively. Also, the selectivity ratio in “in vitro” came out at 112. In addition, the values for the 50% effective concentration (EC50) in the series with Plasmodium falciparum [2], in the series with J774 and in the series on Plasmodium falciparum [3] were 194 nM, 21700 nM and 112 nM, respectively. Also, in “physchem”, the solubility was more than 20 µM. The same compound came in with a pH-dependent lipophilicity (logD) in series [5] of 2.84.
For the compound `COc1cc2[nH]c(C)cc(=O)c2cc1Cl`, the figures for the half-life in series [6] and in series [7] were 62.4 min and 161 min, respectively. Besides, the Papp is 11.9 ×10⁻⁶ cm/s in series [1] and 25.2 ×10⁻⁶ cm/s in series [4]. Moreover, in “in vitro”, the selectivity ratio was more than 24.1. The EC50 is 1860 nM in the series on Plasmodium falciparum [2], more than 44700 nM in the series on J774 and 3180 nM with Plasmodium falciparum [3]. In the series “physchem”, this compound had a solubility of 2 µM (≈ 0.447 µg/mL). The same compound had a logD in [5] of 1.95.
Take `Cc1[nH]c2ccc(Cl)cc2c(=O)c1-c1ccccc1`: the values for the Papp in [1] and in [4] were 111 ×10⁻⁶ cm/s and 108 ×10⁻⁶ cm/s, respectively. In addition, the selectivity ratio in “in vitro” was more than 47.7. For the same compound, the EC50 with Plasmodium falciparum [2] was 777 nM; in the series on J774, more than 37100 nM; with Plasmodium falciparum [3], 244 nM. The concentration in solution in the series “physchem” (solubility) was 5 µM (≈ 1.35 µg/mL). Further, the logD in [5] is 2.43.
In the case of `Cc1[nH]c2c(Cl)cccc2c(=O)c1-c1ccccc1`, the Papp in series [1] came out at 158 ×10⁻⁶ cm/s; in series [4], 165 ×10⁻⁶ cm/s. The selectivity ratio in “in vitro” is more than 4. The EC50 with Plasmodium falciparum [2] is more than 9270 nM; in the series on J774 it was more than 37100 nM; with Plasmodium falciparum [3], more than 9270 nM. The concentration in solution in the series “physchem” (solubility) was 5 µM (≈ 1.35 µg/mL). This compound registered a logD in series [5] of 2.6.
With `Cc1[nH]c2ccc(Cl)c(Cl)c2c(=O)c1-c1ccccc1`, the Papp in series [1] amounted to 285 ×10⁻⁶ cm/s; in series [4] it was 192 ×10⁻⁶ cm/s. Also, the selectivity ratio in the series “in vitro” was more than 10.2. The EC50 in the series on Plasmodium falciparum [2] is 3210 nM; in the series with J774, more than 32900 nM; in the series with Plasmodium falciparum [3], 659 nM. In addition, in the series “physchem”, the solubility is less than 2 µM. The compound also yielded a pH-dependent lipophilicity (logD) in series [5] of 2.83.
`Cc1[nH]c2c(Cl)cc(Cl)cc2c(=O)c1-c1ccccc1`: the Papp in series [1] was determined as 162 ×10⁻⁶ cm/s; in series [4], 232 ×10⁻⁶ cm/s. Further, in “in vitro”, the selectivity ratio was more than 4. The concentration giving a half-maximal response (EC50) with Plasmodium falciparum [2] is more than 8220 nM; in the series with J774, more than 32900 nM; in the series with Plasmodium falciparum [3], more than 8220 nM. Further, the solubility in “physchem” is less than 2 µM. Moreover, in series [5], the logD stood at 3.32.
Consider `COc1cc2[nH]c(C)c(-c3ccccc3)c(=O)c2cc1F`, for which the Papp in series [1] stood at 192 ×10⁻⁶ cm/s; in [4] it was 124 ×10⁻⁶ cm/s. Also, the selectivity ratio in “in vitro” was more than 425. In addition, the values for the concentration for a half-maximal effect (EC50) in the series with Plasmodium falciparum [2], in the series on J774 and in the series with Plasmodium falciparum [3] were 83 nM, more than 35300 nM and 167 nM, respectively. Further, in “physchem”, the solubility came to 5 µM (≈ 1.42 µg/mL). Also, in series [5], the logD is 1.72.
For `COc1cc2[nH]c(C)c(-c3ccccc3)c(=O)c2cc1Cl`, the half-life in [6] came to 21.3 min; in [7], 128 min. Further, the Papp in series [1] is 105 ×10⁻⁶ cm/s; in series [4], 48.3 ×10⁻⁶ cm/s. The selectivity ratio in “in vitro” is more than 2170. The EC50 with Plasmodium falciparum [2] was 15.3 nM; in the series with J774, more than 33400 nM; in the series on Plasmodium falciparum [3], 26.2 nM. Besides, the concentration in solution in “physchem” (solubility) was 5 µM (≈ 1.5 µg/mL). The compound also returned a logD in [5] of 1.65.
As to `COc1cc2[nH]c(C)c(-c3ccccc3)c(=O)c2cc1Br`, the Papp in series [1] came to 306 ×10⁻⁶ cm/s; in [4], 330 ×10⁻⁶ cm/s. Besides, the selectivity ratio in the series “in vitro” was more than 1160. The EC50 in the series with Plasmodium falciparum [2] was 25 nM; in the series with J774, more than 29100 nM; in the series on Plasmodium falciparum [3] it was 79.4 nM. In the series “physchem”, this compound yielded a solubility of less than 2 µM. This compound came in with a logD in [5] of 2.2.
Consider `CCCCCCCc1c(C)[nH]c2cc(OC)c(Cl)cc2c1=O`, for which the Papp in [1] and in series [4] was less than 0.01 ×10⁻⁶ cm/s throughout. Moreover, the selectivity ratio in the series “in vitro” is more than 10500. The EC50 in the series on Plasmodium falciparum [2] was 2.95 nM; with J774, more than 37100 nM; with Plasmodium falciparum [3], 12.3 nM. Further, the solubility in “physchem” was less than 2 µM. In [5], this compound gave a logD of less than 3.83.
`COc1cc2[nH]c(C)c(C3CCCCC3)c(=O)c2cc1Cl` gave a permeability in [1] of 1235.85 ×10⁻⁶ cm/s. Also, in “in vitro”, the selectivity ratio is more than 82.3. The EC50 with Plasmodium falciparum [2] was 397 nM; in the series with J774, more than 32700 nM; in the series with Plasmodium falciparum [3], 237 nM. The compound also had a solubility in “physchem” of 5 µM (≈ 1.53 µg/mL). The Papp in series [4] came to 630 ×10⁻⁶ cm/s. Besides, in [5], the logD was 3.04.
Turning to `C=C(CCCCC)c1c(C)[nH]c2cc(OC)c(Cl)cc2c1=O`, the Papp in [1] was found to be 768 ×10⁻⁶ cm/s; in series [4], 755 ×10⁻⁶ cm/s. The selectivity ratio in the series “in vitro” is 1280. In addition, the figures for the EC50 in the series with Plasmodium falciparum [2], with J774 and in the series with Plasmodium falciparum [3] were 14.8 nM, 18900 nM and 39.4 nM, respectively. In addition, in the series “physchem”, the solubility turned out to be 2 µM (≈ 0.64 µg/mL). The compound also yielded a logD in [5] of 3.58.
`COc1cc2[nH]c(C)c(/C=C/C(=O)OC(C)(C)C)c(=O)c2cc1Cl`: the half-life in [6] is 43.9 min; in series [7] it was 60.3 min. The Papp in series [1] stood at 249 ×10⁻⁶ cm/s; in series [4] it was 261 ×10⁻⁶ cm/s. In the series “in vitro”, the selectivity ratio is more than 533. The values for the EC50 in the series with Plasmodium falciparum [2], in the series with J774 and in the series with Plasmodium falciparum [3] were 53.6 nM, more than 28600 nM and 61.7 nM, respectively. Also, the concentration in solution in the series “physchem” (solubility) came to 5 µM (≈ 1.75 µg/mL). In series [5], this compound came in with a log distribution coefficient (logD) of 1.81.
Regarding `CCCCCCCc1c(C)nc2cc(OC)ccc2c1O`, the values for the half-life in series [6] and in series [7] were 7.9 min and 10.2 min, respectively. In series [1], this compound had a permeability of 1019.9 ×10⁻⁶ cm/s. Also, the selectivity ratio in the series “in vitro” was more than 747. For the same compound, the concentration giving a half-maximal response (EC50) in the series on Plasmodium falciparum [2] was 46.6 nM; with J774, more than 34800 nM; in the series with Plasmodium falciparum [3] it was 8.59 nM. Besides, the concentration in solution in the series “physchem” (solubility) was 2 µM (≈ 0.575 µg/mL). Besides, the Papp in series [4] was determined as 679 ×10⁻⁶ cm/s. Also, the logD in series [5] amounted to 3.69.
